Assays:
Experiment in all cases: 72 h toxicity of erlotinib, cell viability / IC50 analysis
Assay type in all cases: cell-based
H820 cells = conditions: Homo sapiens, NCI-H820, H820 (del E746-E749 and T790M)
Protocol: (§1) FIG. 42A,B. FIG. 42A and 42B show 72 h toxicity of erlotinib in various NSCLC cells lines: (A) Cell viability plot and (B) IC50 analysis. Results were averaged from 3 independent experiments.
(§2) (A, C, E) Represent the cell viability plot and (B, D, F) represent the associated IC50 analysis.
(§3) The IC50 of erlotinib was investigated in multiple cell lines based on their AXL and FN14 expressions and EGFR/KRAS mutant status (FIG. 42). […] The independent and combined effects of AXL and FN14 siRNAs were also examined. siRNA and siRNA based constructs for treatment and studied variation in IC50 of erlotinib in multiples drug resistant cell lines were used.

H1975 = conditions: Homo sapiens, NCI-H1975; T790M mutant H1975, 72 h
Protocol: as §1, §3

HCC827 = HCC827 carrying E746-A750 deletion
Protocol: as §1, §3

A549 = test system: A549
Protocol: as §1, §2, §3
Rho, et al., Cancer Res 2014; 74: 253-262. […] Srikar, et al., Sci Rep 2016; 6: 30245.

## C#Cc1cccc(Nc2ncnc3cc(OCCOC)c(OCCOC)cc23)c1 [erlotinib]
H820 cells
  IC50: > 10 µM
H1975
  IC50: > 10 µM
HCC827
  sensitivity to erlotinib: highly sensitive
A549; A549, downregulating all three pathways (AXL, FN14, KRAS)
  resensitization towards the drug: total resensitization
A549; Homo sapiens, A549, 72 h, read-out: IC50 of erlotinib
  IC50: > 10 µM

— US11576873B2, “Compositions for the treatment of drug-resistant tumors and methods of use thereof” (THE CURATORS OF THE UNIVERSITY OF MISSOURI, priority 2017, dated 2023)
